In patent publication US9365546B2, “Substituted pyridinone-pyridinyl compounds” (CONFLUENCE LIFE SCIENCES INC., priority 2010, dated 2016):
Several values for one entry are separate records, joined by “and”; a condition that tells them apart may be missing. Identical values can stand only once.

Columns and labels:
p38/PRAK = p38/PRAK (Homo sapiens (Human), UniProt Q16539); experiment: p38α/PRAK cascade assay (phosphorylation of Hsp27 peptide, Caliper LabChip 3000); type: biochemical; conditions: activated p38α 20 pM, GST-PRAK 1 nM, Hsp27 peptide 1 μM, MgATP 10 μM; two values per cell
p38/PRAK, sequence (Q16539 whole entry): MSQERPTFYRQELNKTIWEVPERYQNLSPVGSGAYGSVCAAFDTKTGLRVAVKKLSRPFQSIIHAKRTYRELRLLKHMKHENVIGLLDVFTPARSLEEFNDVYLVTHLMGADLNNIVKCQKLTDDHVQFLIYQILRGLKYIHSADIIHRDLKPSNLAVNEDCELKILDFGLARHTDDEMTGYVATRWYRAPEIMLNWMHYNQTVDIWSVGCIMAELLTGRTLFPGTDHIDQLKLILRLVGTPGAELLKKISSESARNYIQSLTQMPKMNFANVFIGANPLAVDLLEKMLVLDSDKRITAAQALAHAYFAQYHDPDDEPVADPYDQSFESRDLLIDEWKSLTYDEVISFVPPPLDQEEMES
Description: (§1) P38 Inhibitory Potency and P38/MK2 Substrate Selectivity: The novel, MK2 substrate-selective inhibitory mechanism of compounds is evaluated in enzyme assays comparing inhibitor potency in blocking p38/MK2 versus p38/PRAK induced phosphorylation of an HSP-27 derived peptide substrate. The ability of compounds to inhibit activated phospho-p38α is evaluated using a p38α/MK2 and a p38α/PRAK cascade assay format. The kinase activity of p38α is determined by its ability to phosphorylate GST-MK2 or GST-PRAK. Activation of MK2 or PRAK by p38α is quantitated by measuring the phosphorylation of a fluorescently-labeled, MK2 specific peptide substrate, Hsp27 peptide ([…]). The phosphorylation of the Hsp27 peptide is quantified using the Caliper LabChip 3000. Kinase reactions is carried out in a 384-well plate (Matrical, MP101-1-PP) in 20 mM HEPES pH 7.5, 10 mM MgCl2, 0.0005% Tween-20, 0.01% BSA, 1 mM DTT, and 2% DMSO. […] The p38α compound inhibitory potency is quantitated from dose-response IC50 values or Ki values from p38α/MK2 cascade assays while the substrate selectivity is calculated as a ratio of p38α/PRAK:p38α/MK2 IC50 values. Species compounds of Formula (I), described hereinabove, evaluated in this assay, are expected to provide a therapeutic benefit in the treatment of p38 kinase mediated diseases, such as autoimmune diseases and lymphoma.

p38/MK2 = p38/MK2 (Homo sapiens (Human), UniProt Q16539); experiment: p38α/MK2 cascade assay (phosphorylation of Hsp27 peptide, Caliper LabChip 3000); type: biochemical; conditions: activated p38α 20 pM, His6-MK2 1 nM, Hsp27 peptide 1 μM, MgATP 10 μM; two values per cell
p38/MK2, sequence (Q16539 whole entry): as above
p38/MK2, sequence (P49137 whole entry partner): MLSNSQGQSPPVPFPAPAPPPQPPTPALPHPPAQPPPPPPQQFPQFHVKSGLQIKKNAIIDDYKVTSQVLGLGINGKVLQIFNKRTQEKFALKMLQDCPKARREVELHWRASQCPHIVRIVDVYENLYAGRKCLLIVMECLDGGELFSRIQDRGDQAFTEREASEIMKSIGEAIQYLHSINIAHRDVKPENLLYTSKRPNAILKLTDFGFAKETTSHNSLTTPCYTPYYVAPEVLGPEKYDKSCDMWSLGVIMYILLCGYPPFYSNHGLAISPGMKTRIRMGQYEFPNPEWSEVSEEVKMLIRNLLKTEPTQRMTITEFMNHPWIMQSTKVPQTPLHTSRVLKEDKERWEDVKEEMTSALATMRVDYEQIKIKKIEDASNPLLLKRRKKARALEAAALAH
Description: as §1, with “The kinase activity of p38α is determined by its ability to phosphorylate GST-MK2 or GST-PRAK.” left out

Row | IC50 (p38/PRAK) | IC50 (p38/MK2) | SMILES
1 | 138 nM and 144 nM | 6.4 nM and 7.3 nM | Cc1cnc(-c2ccnc(C(C)(C)O)n2)cc1-n1c(C)cc(OCc2ccc(F)cc2F)c(Cl)c1=O [Example 284, 3-chloro-4-((2,4-difluorobenzyl)oxy)-2′-(2-(2-hydroxypropan-2-yl)pyrimidin-4-yl)-5′,6-dimethyl-2H-[1,4′-bipyridin]-2-one]
2 | 121 nM and 210 nM | 18 nM and 26 nM | Cc1cnc(-c2ccnc(C(C)(C)C)n2)cc1-n1c(C)cc(OCc2ccc(F)cc2F)c(Cl)c1=O [Example 285, 2′-(2-(tert-butyl)pyrimidin-4-yl)-3-chloro-4-((2,4-difluorobenzyl)oxy)-5′,6-dimethyl-2H-[1,4′-bipyridin]-2-one]
